# Reference: ChEMBL document CHEMBL3244164, “Synthesis and analgesic activity of 1,3-dihydro-3-(substituted phenyl)imidazo[4,5-b]pyridin-2-ones and 3-(substituted phenyl)-1,2,3-triazolo[4,5-b]pyridines” (J Med Chem, 1978)
# Active and inactive are the calls of the source.
# Legend:
# Rattus norvegicus [1] = experiment: Analgesic activity in Sprague-Dawley rat normal foot assessed as response threshold at 16 to 32 mg/kg, po; type: functional; conditions: dose mg/kg 16-32
# Rattus norvegicus [2] = experiment: Analgesic activity in Sprague-Dawley rat brewer's yeast treated foot assessed as response threshold at 8 to 16 mg/kg, po; type: functional; conditions: dose mg/kg 8-16
# Rattus norvegicus [3] = experiment: Analgesic activity in Sprague-Dawley rat brewer's yeast treated foot assessed as response threshold at 16 to 32 mg/kg, po; type: functional; conditions: dose mg/kg 16-32
# Rattus norvegicus [4] = experiment: Analgesic activity in Sprague-Dawley rat assessed as increase in mean reaction time at 10 mg/kg, po after 4 hrs relative to control; type: functional
# Rattus norvegicus [5] = experiment: Analgesic activity in Sprague-Dawley rat normal foot assessed as response threshold at 8 to 16 mg/kg, po; type: functional; conditions: dose mg/kg 8-16
# Rattus norvegicus [6] = experiment: Antiinflammatory activity in Sprague-Dawley rat assessed as inhibition of carrageenan-induced paw edema at 30 mg/kg, po; type: functional
# Rattus norvegicus [7] = experiment: Analgesic activity in Sprague-Dawley rat assessed as increase in mean reaction time at 5 mg/kg, po after 3 hrs relative to control; type: functional
# Rattus norvegicus [8] = experiment: Analgesic activity in Sprague-Dawley rat brewer's yeast treated foot assessed as response threshold at 8 mg/kg, po; type: functional
# Rattus norvegicus [9] = experiment: Analgesic activity in Sprague-Dawley rat assessed as increase in mean reaction time at 10 mg/kg, po after 2 hrs relative to control; type: functional
# Mus musculus [10] = experiment: Analgesic activity in mouse assessed as withdrawal latency at 12.5 to 75 mg/kg, po by Haffner tail clamp method; type: functional, organism-based
# Rattus norvegicus [11] = experiment: Analgesic activity in Sprague-Dawley rat assessed as increase in mean reaction time at 10 mg/kg, po after 5 hrs relative to control; type: functional
# Rattus norvegicus [12] = experiment: Analgesic activity in Sprague-Dawley rat assessed as increase in mean reaction time at 20 mg/kg, po after 4 hrs relative to control; type: functional
# Rattus norvegicus [13] = experiment: Analgesic activity in Sprague-Dawley rat assessed as increase in mean reaction time at 5 mg/kg, po after 2 hrs relative to control; type: functional
# Rattus norvegicus [14] = experiment: Antiarthritic activity in Lewis rat assessed as inhibition of adjuvant-induced paw swelling at 50 mg/kg, po qd for 13 days measured on day 14; type: functional
# Rattus norvegicus [15] = experiment: Analgesic activity in Sprague-Dawley rat assessed as increase in mean reaction time at 20 mg/kg, po after 1 hr relative to control; type: functional
# Rattus norvegicus [16] = experiment: Analgesic activity in Sprague-Dawley rat assessed as increase in mean reaction time at 20 mg/kg, po after 5 hrs relative to control; type: functional
# Rattus norvegicus [17] = experiment: Analgesic activity in Sprague-Dawley rat assessed as increase in mean reaction time at 10 mg/kg, po after 3 hrs relative to control; type: functional
# Rattus norvegicus [18] = experiment: Analgesic activity in Sprague-Dawley rat assessed as increase in mean reaction time at 5 mg/kg, po after 1 hr relative to control; type: functional
# Rattus norvegicus [19] = experiment: Analgesic activity in Sprague-Dawley rat assessed as increase in mean reaction time at 5 mg/kg, po after 5 hrs relative to control; type: functional
# Rattus norvegicus [20] = experiment: Analgesic activity in Sprague-Dawley rat assessed as increase in mean reaction time at 5 mg/kg, po after 4 hrs relative to control; type: functional
# Mus musculus [21] = experiment: Analgesic activity in naloxone treated mouse assessed as withdrawal latency at 12.5 to 75 mg/kg, po; type: functional, organism-based
# Rattus norvegicus [22] = experiment: Analgesic activity in Sprague-Dawley rat assessed as increase in mean reaction time at 20 mg/kg, po after 2 hrs relative to control; type: functional
# Rattus norvegicus [23] = experiment: Analgesic activity in Sprague-Dawley rat assessed as increase in mean reaction time at 10 mg/kg, po after 1 hr relative to control; type: functional
# Rattus norvegicus [24] = experiment: Analgesic activity in Sprague-Dawley rat assessed as increase in mean reaction time at 20 mg/kg, po after 3 hrs relative to control; type: functional
# Rattus norvegicus [25] = experiment: Analgesic activity in Sprague-Dawley rat assessed as increase in mean reaction time at 60 mg/kg, po after 3 hrs relative to control; type: functional
# Rattus norvegicus [26] = experiment: Analgesic activity in Sprague-Dawley rat assessed as increase in mean reaction time at 90 mg/kg, po after 5 hrs relative to control; type: functional
# Rattus norvegicus [27] = experiment: Analgesic activity in Sprague-Dawley rat assessed as increase in mean reaction time at 30 mg/kg, po after 1 hr relative to control; type: functional
# Rattus norvegicus [28] = experiment: Analgesic activity in Sprague-Dawley rat assessed as increase in mean reaction time at 90 mg/kg, po after 1 hr relative to control; type: functional
# Rattus norvegicus [29] = experiment: Analgesic activity in Sprague-Dawley rat assessed as increase in mean reaction time at 60 mg/kg, po after 2 hrs relative to control; type: functional
# Rattus norvegicus [30] = experiment: Analgesic activity in Sprague-Dawley rat assessed as increase in mean reaction time at 60 mg/kg, po after 1 hr relative to control; type: functional
# Rattus norvegicus [31] = experiment: Analgesic activity in Sprague-Dawley rat assessed as increase in mean reaction time at 120 mg/kg, po after 4 hrs relative to control; type: functional
# Rattus norvegicus [32] = experiment: Analgesic activity in Sprague-Dawley rat normal foot assessed as response threshold at 32 mg/kg, po; type: functional
# Rattus norvegicus [33] = experiment: Analgesic activity in Sprague-Dawley rat assessed as increase in mean reaction time at 90 mg/kg, po after 4 hrs relative to control; type: functional
# Rattus norvegicus [34] = experiment: Analgesic activity in Sprague-Dawley rat assessed as increase in mean reaction time at 60 mg/kg, po after 4 hrs relative to control; type: functional
# Rattus norvegicus [35] = experiment: Toxicity in Sprague-Dawley rat assessed as sedation at 90 mg/kg, po after 4 hrs relative to control; type: organism-based; parameters: dose 90 mg/kg, route oral; conditions: in vivo
# Rattus norvegicus [36] = experiment: Toxicity in Sprague-Dawley rat assessed as sedation at 90 mg/kg, po after 5 hrs relative to control; type: organism-based; parameters: dose 90 mg/kg, route oral; conditions: in vivo
# Rattus norvegicus [37] = experiment: Analgesic activity in Sprague-Dawley rat assessed as increase in mean reaction time at 120 mg/kg, po after 5 hrs relative to control; type: functional
# Rattus norvegicus [38] = experiment: Analgesic activity in Sprague-Dawley rat assessed as increase in mean reaction time at 30 mg/kg, po after 3 hrs relative to control; type: functional
# Rattus norvegicus [39] = experiment: Toxicity in Sprague-Dawley rat assessed as sedation at 90 mg/kg, po after 2 hrs relative to control; type: organism-based; parameters: dose 90 mg/kg, route oral; conditions: in vivo
# Rattus norvegicus [40] = experiment: Analgesic activity in Sprague-Dawley rat assessed as increase in mean reaction time at 120 mg/kg, po after 2 hrs relative to control; type: functional
# Rattus norvegicus [41] = experiment: Toxicity in Sprague-Dawley rat assessed as sedation at 90 mg/kg, po after 1 hr relative to control; type: organism-based; parameters: dose 90 mg/kg, route oral; conditions: in vivo
# Rattus norvegicus [42] = experiment: Analgesic activity in Sprague-Dawley rat assessed as increase in mean reaction time at 120 mg/kg, po after 1 hr relative to control; type: functional
# Rattus norvegicus [43] = experiment: Analgesic activity in Sprague-Dawley rat assessed as increase in mean reaction time at 60 mg/kg, po after 5 hrs relative to control; type: functional
# Rattus norvegicus [44] = experiment: Analgesic activity in Sprague-Dawley rat assessed as increase in mean reaction time at 30 mg/kg, po after 5 hrs relative to control; type: functional
# Rattus norvegicus [45] = experiment: Analgesic activity in Sprague-Dawley rat assessed as increase in mean reaction time at 30 mg/kg, po after 2 hrs relative to control; type: functional
# Rattus norvegicus [46] = experiment: Analgesic activity in Sprague-Dawley rat assessed as increase in mean reaction time at 90 mg/kg, po after 3 hrs relative to control; type: functional
# Rattus norvegicus [47] = experiment: Analgesic activity in Sprague-Dawley rat assessed as increase in mean reaction time at 90 mg/kg, po after 2 hrs relative to control; type: functional
# Rattus norvegicus [48] = experiment: Toxicity in Sprague-Dawley rat assessed as sedation at 90 mg/kg, po after 3 hrs relative to control; type: organism-based; parameters: dose 90 mg/kg, route oral; conditions: in vivo
# Rattus norvegicus [49] = experiment: Analgesic activity in Sprague-Dawley rat assessed as increase in mean reaction time at 30 mg/kg, po after 4 hrs relative to control; type: functional
# Rattus norvegicus [50] = experiment: Analgesic activity in Sprague-Dawley rat assessed as increase in mean reaction time at 120 mg/kg, po after 3 hrs relative to control; type: functional
compound,measurement,setting,value
O=c1n(CCO)c2cccnc2n1-c1ccc2c(c1)OCO2,Activity,Rattus norvegicus [1],>40 mm
same,Activity,Rattus norvegicus [2],>25 mm
CC(C)(C)n1c(=O)n(-c2ccc3c(c2)OCO3)c2ncccc21,Activity,Rattus norvegicus [1],>40 mm
same,Activity,Rattus norvegicus [3],>25 mm
O=c1[nH]c2cccnc2n1-c1ccc2c(c1)OCO2,Time,Rattus norvegicus [4],2.3 s
same,Activity,Rattus norvegicus [5],>50 mm
same,inhibition in vivo at 30 mg/kg,Rattus norvegicus [6],37%
same,Time,Rattus norvegicus [7],-0.1 s
same,Activity,Rattus norvegicus [8],>34 mm
same,Time,Rattus norvegicus [9],3.9 s
same,Activity,Mus musculus [10],Active
same,Time,Rattus norvegicus [11],-0.2 s
same,Time,Rattus norvegicus [12],20 s
same,Time,Rattus norvegicus [13],2.1 s
same,inhibition in vivo at 50 mg/kg,Rattus norvegicus [14],68.3%
same,Time,Rattus norvegicus [15],6 s
same,Time,Rattus norvegicus [16],18.3 s
same,Time,Rattus norvegicus [17],2.8 s
same,Time,Rattus norvegicus [18],1.5 s
same,Time,Rattus norvegicus [19],0.4 s
same,Time,Rattus norvegicus [20],1.3 s
same,Activity,Mus musculus [21],inactive
same,Time,Rattus norvegicus [22],15 s
same,Time,Rattus norvegicus [23],2 s
same,Time,Rattus norvegicus [24],20.4 s
Cn1c(=O)n(-c2ccc3c(c2)OCO3)c2ncccc21,Activity,Rattus norvegicus [5],>50 mm
same,Activity,Rattus norvegicus [3],>25 mm
Cc1ccc(-n2c(=O)[nH]c3cccnc32)cc1,Activity,Rattus norvegicus [1],>40 mm
same,Activity,Rattus norvegicus [3],>25 mm
C=C(Cl)Cn1c(=O)n(-c2ccc3c(c2)OCO3)c2ncccc21,Activity,Rattus norvegicus [1],>40 mm
same,Activity,Rattus norvegicus [3],>25 mm
CCC(=O)O[C@](Cc1ccccc1)(c1ccccc1)[C@H](C)CN(C)C [PROPOXYPHENE],Time,Rattus norvegicus [25],-2.4 s
same,Time,Rattus norvegicus [26],10.5 s
same,inhibition in vivo at 30 mg/kg,Rattus norvegicus [6],23%
same,Time,Rattus norvegicus [27],-3.2 s
same,Time,Rattus norvegicus [28],40.6 s
same,Activity,Mus musculus [10],Active
same,Time,Rattus norvegicus [29],-0.8 s
same,Time,Rattus norvegicus [30],-3 s
same,Time,Rattus norvegicus [31],15 s
same,Activity,Rattus norvegicus [32],40 mm
same,inhibition in vivo at 50 mg/kg,Rattus norvegicus [14],56.2%
same,Time,Rattus norvegicus [33],36.4 s
same,Time,Rattus norvegicus [34],-0.8 s
same,Activity,Rattus norvegicus [35],Toxic
same,Activity,Rattus norvegicus [36],Toxic
same,Time,Rattus norvegicus [37],3.6 s
same,Time,Rattus norvegicus [38],-4.4 s
same,Activity,Rattus norvegicus [39],Toxic
same,Time,Rattus norvegicus [40],30 s
same,Activity,Rattus norvegicus [41],Toxic
same,Time,Rattus norvegicus [42],41.9 s
same,Time,Rattus norvegicus [43],-1.1 s
same,Activity,Rattus norvegicus [3],>25 mm
same,Time,Rattus norvegicus [44],0.1 s
same,Time,Rattus norvegicus [45],-2.6 s
same,Time,Rattus norvegicus [46],40.7 s
same,Time,Rattus norvegicus [47],42 s
same,Activity,Mus musculus [21],inactive
same,Activity,Rattus norvegicus [48],Toxic
same,Time,Rattus norvegicus [49],-0.8 s
same,Time,Rattus norvegicus [50],24.5 s
COc1ccc2c3c1O[C@H]1[C@@H](O)C=C[C@H]4[C@@H](C2)N(C)CC[C@@]341 [CODEINE],Activity,Rattus norvegicus [1],>40 mm
same,Activity,Rattus norvegicus [2],>25 mm
